{"source": "patent US11319313B2", "about": "“Crystalline forms of deuterium-enriched pioglitazone” (Poxel SA, priority 2020, dated 2022)", "key": {"[1]": {"experiment": "Dog pharmacokinetic (PK) study, single oral administration", "assay_type": "in vivo, Beagle dogs", "description": "The 3 Beagle male dogs were fasted before dosing. Then all test drugs were administered by the oral route using API in a capsule. [table] Food was given no sooner than one hour after dose administration on the days of treatment. Each administration was separated by a wash-out period of at least 2 days. […] Predose (just before dosing) and then […] after dosing."}, "[2]": {"experiment": "13-week dog toxicology study, toxicokinetics on day 91", "conditions": "for AUC0-24, ss dose normalized, total pioglitazone: Day 91, 5 mg/kg/day; for AUC0-24,ss, total pioglitazone: Day 91, oral capsule 5 mg/kg/day"}, "[3]": {"experiment": "Phase Ib repeated-dose PK study in healthy human subjects", "assay_type": "in vivo", "conditions": "for AUC0-24,ss, total pioglitazone / AUC0-24, ss dose normalized, total pioglitazone: steady state; for AUC0-24,ss, total pioglitazone: fasting", "description": "Subjects were screened within 28 days before their first dose of study medication. They stayed in the clinic from 1 day before dosing (Day −1) until at least 48 hours after their final dose of trial medication (Day 11).\nEach dose group was composed of 4 males and 4 females in a 3:1 active/placebo ratio. • One (1) Actos® group: 6 subjects (3 males and 3 females) were given Actos®. Placebo was not given to any subjects in this group.\nSubjects received a single oral dose of study drug (7.5, 15, or 30 mg tablets of PXL065 or matching placebo tablets, or 45 mg Actos® tablets), under fasting conditions on Day 1. […] All study drugs were dosed in fasting conditions.\nThe PXL065 PK parameters of the three single oral doses on Day 1 and after seven daily administrations on Day 9 were compared to the Actos® PK parameters on Day 1 and after seven daily administrations on Day 9.\nPXL065, orally administered. Dose=1×7.5 mg tablet, 1×15 mg tablet, or 1×30 mg tablet.\n(§1) Actos®, orally administered. Dose=1×45 mg, tablet.\nOne single oral administration of PXL065 or matching placebo or Actos® was given on Day 1 in fasting conditions followed by once daily multiple oral administrations of PXL065 or matching placebo or Actos® from Day 3 to Day 9 (7 days) in fasting conditions.\nPharmacokinetics: Plasma samples were analyzed using a validated assay. The samples from all evaluable subjects were analyzed. Samples from subjects who experienced emesis within 4 hours of dosing were not analyzed.\nPlasma PK parameters included, but were not limited to: • Following single dose on Day 1 and Day 3 (for PXL065 groups): tmax, tlag, Cmax, AUC0-last, AUC0-24, AUC0-inf, λz, t1/2, % AUCext, CL/F, Vz/F, Cmax/Dose, AUC0-last/Dose, AUC0-inf/Dose and MRT each calculated using compartmental or non-compartmental methods as appropriate for the deuterated and protonated (R)- and (S)-enantiomers of pioglitazone. • Day 4 to Day 9: Ctrough for the deuterated and protonated (R)- and (S)-enantiomers of pioglitazone; and • Following repeated doses on Day 9: tmax, Cmax, Cavg, tlag, AUC0-last, AUC0-24, AUC0-inf, λz, t1/2, % AUCext, CLss/F, Vzss/F, MRT, PTF, Rac(AUC0-24), Rac(Cmax) SR(AUC), Cmax/Dose, AUC0-last/Dose, AUC0-inf/Dose, AUC0-24/Dose. Safety"}, "[4]": {"experiment": "Phase Ia single-dose PK study in healthy human subjects", "assay_type": "in vivo", "conditions": "single oral dose 22.5 mg capsule", "description": "PXL065, orally administered.\nas §1"}, "[5]": {"conditions": "single oral 5 mg/kg (capsule), fasted male dogs, plasma, mean"}}, "note": "Marks after values point to notes of the source that are not given here."}
{"smiles": "[2H][C@]1(Cc2ccc(OCCc3ccc(CC)cn3)cc2)SC(=O)NC1=O", "note": "[PXL065, deuterium-enriched (R)-pioglitazone]", "values": [{"measurement": "AUC0-24, Total Pio", "setting": "[1]; dog, in vivo, po, 5 mg/kg", "value": 7000, "unit": "ng·h/mL"}, {"measurement": "AUC0-24, Total R-pio", "setting": "[1]; dog, in vivo, po, 5 mg/kg", "value": 5770, "unit": "ng·h/mL"}, {"measurement": "AUC0-24, Total S-pio", "setting": "[1]; dog, in vivo, po, 5 mg/kg", "value": 1240, "unit": "ng·h/mL"}, {"measurement": "Cmax, Total Pio", "setting": "[1]; dog, in vivo, po, 5 mg/kg", "value": 1520, "unit": "ng/mL"}, {"measurement": "Cmax, Total R-pio", "setting": "[1]; dog, in vivo, po, 5 mg/kg", "value": 1330, "unit": "ng/mL"}, {"measurement": "Cmax, Total S-pio", "setting": "[1]; dog, in vivo, po, 5 mg/kg", "value": 227, "unit": "ng/mL"}, {"measurement": "Tmax, Total Pio", "setting": "[1]; dog, in vivo, po, 5 mg/kg", "value": 1, "unit": "h"}, {"measurement": "Tmax, Total R-pio", "setting": "[1]; dog, in vivo, po, 5 mg/kg", "value": 1, "unit": "h"}, {"measurement": "Tmax, Total S-pio", "setting": "[1]; dog, in vivo, po, 5 mg/kg", "value": 2, "unit": "h"}, {"measurement": "T1/2z, Total Pio", "setting": "[1]; [5]", "value": "1.46^a h"}, {"measurement": "T1/2z, Total R-pio", "setting": "[1]; [5]", "value": "1.43^a h"}, {"measurement": "T1/2z, Total S-pio", "setting": "[1]; [5]", "value": "1.62^a h"}, {"measurement": "AUC0-24, ss dose normalized, total pioglitazone", "setting": "[2]; female dogs (F)", "value": 1762, "unit": "ng·h/mL"}, {"measurement": "AUC0-24,ss, total pioglitazone", "setting": "[2]; female dogs (F)", "value": 8710, "unit": "ng·h/mL"}, {"measurement": "AUC0-24, ss dose normalized, total pioglitazone", "setting": "[2]; male dogs (M)", "value": 2180, "unit": "ng·h/mL"}, {"measurement": "AUC0-24,ss, total pioglitazone", "setting": "[2]; male dogs (M)", "value": 10900, "unit": "ng·h/mL"}, {"measurement": "AUC0-24,ss, total pioglitazone", "setting": "[3]; 15 mg tablet once daily, repeated doses", "value": 6505, "unit": "ng·h/mL"}, {"measurement": "AUC0-24, ss dose normalized, total pioglitazone", "setting": "[3]; 15 mg tablet", "value": 434, "unit": "ng·h/mL/mg"}, {"measurement": "AUC0-24,ss, total pioglitazone", "setting": "[3]; 30 mg tablet once daily, repeated doses", "value": 13802, "unit": "ng·h/mL"}, {"measurement": "AUC0-24, ss dose normalized, total pioglitazone", "setting": "[3]; 30 mg tablet", "value": 460, "unit": "ng·h/mL/mg"}, {"measurement": "Increase of relative bioavailability compared to Actos", "setting": "[3]; humans, repeated doses", "value": "55%-65%"}, {"measurement": "AUCinf dose normalized, total pioglitazone", "setting": "[4]", "value": 618, "unit": "ng·h/mL/mg"}, {"measurement": "AUCinf, total pioglitazone", "setting": "[4]; fasted healthy subjects", "value": 13896, "unit": "ng·h/mL"}]}
